Measurements: US12178830B2, “Compositions and methods for adoptive cell therapy for cancer” (MEMORIAL SLOAN KETTERING CANCER CENTER, priority 2017, dated 2024)

Tests used:
[1] = tested on: normal human fibroblast MRC5; test: CellTitre Glo in vitro cytotoxicity, MRC5; assay type: cell-based
Experimental: (§1) In vitro cytotoxicity of AMS-related structures was also assessed to determine the modifications of AMS that alter cytotoxicity. The in vitro cytotoxicity of each of these AMS-related structures was tested against both hepatocellular carcinoma HepG2 and normal human fibroblast MRC5 cell lines using a CellTitre Glo® assay (Promega, Madison, WI) The modifications and results are provided in Table 1 below.

Jurkat (T cell) = test: CellTitre Glo in vitro cytotoxicity, Jurkat; assay type: cell-based, human
primary T-cells = test: CellTitre Glo in vitro cytotoxicity, primary T cells; assay type: cell-based, human
HEK293T (kidney) = test: CellTitre Glo in vitro cytotoxicity, HEK293T; assay type: cell-based, human
HL 60 (leukemia) = test: CellTitre Glo in vitro cytotoxicity, HL 60; assay type: cell-based
Experimental: The in vitro cytotoxicity of AMS (structure 1c) and its prodrug variant (structure 1a) was tested against a variety of cell lines using a CellTitre Glo® assay (Promega, Madison, WI). […] Moreover, co-treatment with the prodrug and supernatant from CPG2-transfected HEK293T cells (see Example 3) led to cytotoxicity approaching that of the free drug (50 nM), consistent with CPG2-mediated cleavage of the prodrug to release the active parent drug. […] In contrast, AMS prodrug 1a was not activated by HEK293T cells expressing CPG intracellularly, which likely attributed to poor cell-penetrance of the prodrug due to the free bis-anionic gluatamate moiety.

[2] = tested on: hepatocellular carcinoma HepG2; test: CellTitre Glo in vitro cytotoxicity, HepG2; assay type: cell-based; conditions: read-out: HepG2 IC50
Experimental: This example describes the synthesis of exemplary prodrugs based on sulfamoyladenosine (AMS) (structure 1c) (FIG. 2C) for cleavage by the bacterial hydrolase enzyme CPG2. AMS is a close analog of nucleocidin and a potent cytotoxic molecule (HepG2 IC50=9 nM). […] Based on these SAR data, AMS prodrug 1a (“P-AMS”; FIG. 2C) was synthesized from 2′,3′-O-isopropylidene-5′-O-TBS-adenosine (structure 3, FIG. 2D) by 6-N-acylation with CDI-activated bis-O-t-Bu-glutamate (30%), desilylation (TBAF), sulfamoylation (H2NSO2C1, DMA), and acetonide hydrolysis (TFA, H2O, 15% over 3 steps). Two alternative N-sulfamate-linked prodrugs (not shown) attached via CO-PAB-CO and TML-CO linkers were synthesized (FIG. 2B). A more detailed discussion of the P-AMS synthesis and the synthesis of the N-sulfamate-linked prodrug attached via a TML-CO linker (“Trimethyllock-AMS”) is provided below in this example. As an alternative cytotoxic using a known anticancer therapeutic, the mustard prodrug ZD2767P (structure 2a, FIG. 2C) was also synthesized as previously reported (Springer et al., J Med Chem. 37(15):2361-70(1994) and Niculescu-Duvaz et al., Tetrahedron Lett. 46(40):6919-22 (2005)).
as §1

[3] = tested on: non-small cell lung carcinoma cell line PC9; test: CellTitre-Glo viability, PC9; assay type: cell-based, human
Experimental: FIG. 14 provides exemplary data showing that Human T cells, but not cancer cells, are resistant to Erlotinib. (A) Human Jurkat T cells (red circle) and human non-small cell lung carcinoma cell lines PC9 (black square) and HCC827 (blue triangle) were treated with increasing concentrations of the receptor tyrosine kinase inhibitor Erlotinib. […] Cell viability was measured at 48 hours by CellTitre-Glo® luminescence.
FIG. 14 provides exemplary data showing that Human T cells, but not cancer cells, are resistant to Erlotinib. Human Jurkat T cells, primary T cells and human non-small cell lung carcinoma cell lines PC9 and HCC827 were treated with increasing concentrations of the receptor tyrosine kinase inhibitor Erlotinib. […] PC9 cells were incubated in the presence of Erlotinib, P-Erlotinib, or P-Erlotinib in the presence of purified CPG2. Cell viability was measured at 48 hours by CellTitre-Glo® luminescence.

[4] = tested on: lung adenocarcinoma cells (HCC827); test: Co-culture of GFP+ 293tCPGTM cells with HCC827 plus erlotinib prodrug; assay type: cell-based; conditions: 293tCPGTM:HCC827 various ratios, 120 hr
Experimental: FIG. 15 provides exemplary data showing the pro-drug activity of 293T cells expressing transmembrane CPG2. GFP+293t^CPGTM cells were co-cultured with lung adenocarcinoma cells (HCC827) at various ratios (293t^CPGTM:HCC827) and the erlotinib prodrug (p-erlotinib) was added. (A) Cells were analyzed at 120 hour by flow cytometry and % GFP was calculated. (B) Ratio of 293t^CPGTM cells to HCC827 cells was calculated for each cell ratio.
The retroviral constructs encoding the anti-CD19 CAR and transmembrane CPG2 enzyme described above were transduced into 293T cells to test the conversion activity of transmembrane CPG2 for an Erlotinib prodrug. GFP+293t^CPGTM cells were co-cultured with lung adenocarcinoma cells (HCC827) at various ratios (293t^CPGTM:HCC827) and the erlotinib prodrug (p-erlotinib) was added. Cells were analyzed at 120 hr. by flow cytometry (FIG. 15A) and the percentage of GFP cells and the ratio of 293t^CPGTM cells to HCC827 cells was calculated for each cell ratio (FIG. 15B).

[5] = tested on: myeloid leukemia cell line SET2; test: CellTitre Glo in vitro cytotoxicity, SET2; assay type: cell-based; conditions: Set2; prodrug vs AMS
SET2 cells = test: SET2 viability with prodrug plus recombinant enzyme or enzyme-containing supernatant; assay type: cell-based; conditions: Beta-lactamase supernatant; control media did not
Experimental: Recombinant CPG2 protein was initially synthesized, purified (FIGS. 18A and 18B), and incubated with increasing concentrations of prodrug in a glutamate release assay (FIG. 17C). Mass spectrometry was used to determine that the glutamate moiety was released from all of the glutamate prodrugs. The in vitro cytotoxicity of the prodrugs (FIG. 17B) were tested against the myeloid leukemia cell line SET2 using a CellTitre Glo® assay (Promega, Madison, WI).
SET2 cells were exposed to increasing concentrations of AMS (square) or glut-AMS with media alone (− control, triangle) or supernatant from CPG2-secreting HEK293t cells (circle). Cell viability was measured by CellTitre-Glo® luminescence assay.
Thus, antigen-dependent expansion of SEAKER T cells results in increased output of enzyme into the extracellular milieu.
To determine to respective enzyme output of the Beta-lactamase constructs relative to the previous CPG2 constructs, a quantitative sandwich ELISA was used to determine the concentration (ng/mL) of purified recombinant CPG2, and a quantitative nitrocefin assay was used to determine the concentration (ng/mL) of purified recombinant Beta-lactamase (FIG. 25A). Cell viability was measured by CellTitre-Glo® luminescence in the presence of prodrug (glut-AMS or ceph-AMS) and varying concentrations of purified recombinant CPG2 or Beta-lactamase (FIG. 25B).

[6] = tested on: non-small cell lung carcinoma cell line HCC827; test: CellTitre-Glo viability, HCC827; assay type: cell-based, human; conditions: HCC827, 48 hours
Experimental: Human Jurkat T cells, primary T cells and human non-small cell lung carcinoma cell lines PC9 and HCC827 were treated with increasing concentrations of the receptor tyrosine kinase inhibitor Erlotinib. […] Cell viability was measured at 48 hours by CellTitre-Glo® luminescence.

## Nc1ncnc2c1ncn2[C@@H]1O[C@H](COS(N)(=O)=O)[C@@H](O)[C@H]1O [AMS]
[1]
  IC50: 30 nM
Jurkat (T cell); Jurkat, read-out: IC50
  IC50: 18 nM
Primary T-cells; primary T-cells, read-out: IC50
  IC50: 66 nM
HEK293T (kidney); HEK293T, read-out: IC50
  IC50: 666 nM
HL 60 (leukemia)
  IC50: 70 nM
[2]
  IC50: 9 nM

## C#Cc1cccc(N(Cc2ccc(NC(=O)N[C@@H](CCC(=O)O)C(=O)O)cc2)c2ncnc3cc(OCCOC)c(OCCOC)cc23)c1 [P-Erlotinib, ((4-(((6,7-bis(2-methoxyethoxy)quinazolin-4-yl)(3-ethynylphenyl)amino)methyl)phenyl)carbamoyl)-L-glutamic acid]
[3]; 1 μM, without CPG2, 48 hours
  toxicity in PC9 cells: no toxicity
[3]; in the presence of purified CPG2, 48 hours
  activity of cleaved prodrug in PC9 cells: comparable activity to the active drug
[4]
  killing in co-culture with transmembrane CPG2 cells: kills the target cancer cell, but not the cell secreting the enzyme

## Nc1ncnc2c1ncn2[C@@H]1O[C@H](COS(=O)(=O)NCC2=C(C(=O)O)N3C(=O)[C@@H](NC(=O)Cc4cccs4)[C@H]3SC2)[C@@H](O)[C@H]1O [ceph-AMS]
Primary T-cells; Human T cell, prodrug vs AMS
  Selective Index: >6
HEK293T (kidney); HEK293t, prodrug vs AMS
  Selective Index: ~3
[5]
  Selective Index: ~64
SET2 cells
  SET2 cell viability with prodrug and Beta-lactamase supernatant: significant decrease in cell viability

## C#Cc1cccc(Nc2ncnc3cc(OCCOC)c(OCCOC)cc23)c1 [Erlotinib, reference compound]
[3]; PC9, 48 hours
  response to increasing concentrations: significant cell death
Jurkat (T cell); T cell lines (Jurkat), 48 hours
  response to increasing concentrations: exhibited resistance
Primary T-cells; primary T cells
  response to increasing concentrations: exhibited resistance
[6]
  response to increasing concentrations: significant cell death
